Results from PMC8508785, “Synthesis and In Silico Docking of New Pyrazolo[4,3-e]pyrido[1,2-a]pyrimidine-based Cytotoxic Agents” (International Journal of Molecular Sciences, 2021).

Columns and labels:
[1] = tested on: A375 cells (malignant melanoma); assay: SRB cytotoxicity assay, A375; format: cell-based; details: Homo sapiens, A-375, 72 h of treatment
Description: (§1) The synthesized compounds were evaluated for their cytotoxic activity by a photometric […] (SRB) on different human cancer cell lines, malignant melanoma (A375), colon (HT29), breast (MCF-7), human ovarian carcinoma (A2780) and pharynx carcinoma (FaDu); for comparison, non-malignant mouse embryonic fibroblasts (NIH 3T3) and human embryonic kidney cells (HEK293) were included; doxorubicin (DX) was used as a positive control.
(§2) The cell lines were obtained from Department of oncology (MartinLutherUniversity Halle-Wittenberg). Cultures were maintained as monolayers in RPMI 1640 medium with L-glutamine (Capricorn Scientific GmbH, Ebsdorfergrund, Germany) supplemented with 10% heat-inactivated fetal bovine serum (Sigma-Aldrich Chemie GmbH, Steinheim, Germany) and penicillin/streptomycin (1%, Capricorn Scientific GmbH, Ebsdorfergrund, Germany) at 37 °C in a humidified atmosphere with 5% CO2.
(§3) The cytotoxicity of the compounds was evaluated using the sulforhodamine-B (Kiton-Red S, ABCR: Karlsruhe, Germany) microculture colorimetric assay using […] cells in 96-well plates with the seeding of the cells on day 0,by applying appropriate cell densities to prevent confluence of the cells during the period of the experiment. On day 1, the cells were treated with six different concentrations (1, 3, 7, 12, 20 and 30 μM); thereby, the final concentration of DMSO was always <0.5%, generally regarded as non-toxic to the cells. On day 4, the supernatant medium was discarded; the cells were fixed with 10% trichloroacetic acid. After another day at 4 °C, the cells were washed in a strip washer and dyed with the SRB solution (100 μL, 0.4% in 1% acetic acid) for about 20 min to be followed by washing of the plates (four times, 1% acetic acid) and air-drying overnight. Furthermore, Tris base solution (200 μL, 10 mM) was added to each well, and absorbance was measured at λ = 570 nm employing a reader (96 wells, Tecan Spectra, Crailsheim, Germany). The EC50 values were averaged from three independent experiments performed each in triplicate, calculated from semi-logarithmic dose–response curves applying a non-linear four-parameter Hill-slope equation (GraphPad Prism5 vom Graphpad Software Inc., San Diego, USA; the variables top and bottom were set to 100 and 0, respectively).

HT29 cells (colon) = assay: SRB cytotoxicity assay, HT29; format: cell-based; details: Homo sapiens, HT-29, 72 h of treatment
Description: as §1, §2, §3

MCF-7 cells (breast) = assay: SRB cytotoxicity assay, MCF-7; format: cell-based; details: Homo sapiens, MCF7, 72 h of treatment
Description: as §1, §2, §3

[2] = tested on: A2780 cells (human ovarian carcinoma); assay: SRB cytotoxicity assay, A2780; format: cell-based; details: 72 h of treatment
Description: as §1, §2, §3

[3] = tested on: FaDu cells (pharynx carcinoma); assay: SRB cytotoxicity assay, FaDu; format: cell-based; details: Homo sapiens, 72 h of treatment
Description: as §1, §2, §3

[4] = tested on: NIH 3T3 non-malignant mouse embryonic fibroblasts; assay: SRB cytotoxicity assay, NIH 3T3; format: cell-based; details: NIH3T3, 72 h of treatment, non-malignant NIH 3T3
Description: as §1, §2, §3

[5] = tested on: HEK293 human embryonic kidney cells; assay: SRB cytotoxicity assay, HEK293; format: cell-based; details: 72 h of treatment, non-malignant HEK293
Description: as §1, §2, §3

[6] = tested on: human tumor cell lines A375, HT29, MCF7, A2780, FaDu; assay: SRB cytotoxicity assay, panel of human tumor cell lines; format: cell-based; details: one statement for several/all five cancer cell lines, read-out: EC50 across the cancer cell lines
Description: as §1, §2
as §3, with “After another day at 4 °C, the cells were washed in a strip washer and dyed with the SRB solution (100 μL, 0.4% in 1% acetic acid) for about 20 min to be followed by washing of the plates (four times, 1% acetic acid) and air-drying overnight.” left out

SMILES: Cc1nn(-c2ccccc2)c(N)c1C#N [Compound 3, 5-Amino-3-methyl-1-phenyl-1H-pyrazole-4-carbonitrile]
- EC50 [1]: > 30 µM
- EC50 (HT29 cells (colon)): > 30 µM
- EC50 (MCF-7 cells (breast)): > 30 µM
- EC50 [2]: > 30 µM
- EC50 [3]: > 30 µM
- EC50 [4]: > 30 µM
- EC50 [5]: > 30 µM
- EC50 [6]: > 30 µM
- melting point: 132 °C

SMILES: CC(=O)/C=C(\C)Nc1c(C#N)c(C)nn1-c1ccccc1 [Compound 5, 3-Methyl-5-{[(1E)-1-methyl-3-oxobut-1-en-1-yl]amino}-1-phenyl-1H-pyrazole-4-carbonitrile]
- EC50 [1]: > 30 µM
- EC50 (HT29 cells (colon)): > 30 µM
- EC50 (MCF-7 cells (breast)): > 30 µM
- EC50 [2]: > 30 µM
- EC50 [3]: > 30 µM
- EC50 [4]: > 30 µM
- EC50 [5]: > 30 µM
- EC50 [6]: > 30 µM
- melting point: 109 °C

SMILES: CC(=O)C1=C(C)N2C(=C(C#N)C1c1ccc(Cl)cc1)N=C(N)c1c(C)nn(-c3ccccc3)c12 (stereo not shown) [Compound 7a, 8-Acetyl-4-amino-7-(4-chlorophenyl)-3,9-dimethyl-1-phenyl-1,7-dihydropyrazolo[4,3-e] Pyrido[1,2-a]pyrimidine-6-carbonitrile]
- EC50 [1]: 19.3 ± 3 µM
- EC50 (HT29 cells (colon)): 29.9 ± 1.4 µM
- EC50 (MCF-7 cells (breast)): 17.2 ± 1.4 µM
- EC50 [2]: 18 ± 3 µM
- EC50 [3]: > 30 µM
- EC50 [4]: 23 ± 1.4 µM
- EC50 [5]: 15.8 ± 2 µM
- melting point: 167 °C

SMILES: CC(=O)C1=C(C)N2C(=C(C#N)C1c1ccc(C)cc1)N=C(N)c1c(C)nn(-c3ccccc3)c12 (stereo not shown) [Compound 7b]
- EC50 [1]: 12.9 ± 1.6 µM
- EC50 (HT29 cells (colon)): 17.5 ± 1.8 µM
- EC50 (MCF-7 cells (breast)): 12.2 ± 1.3 µM
- EC50 [2]: 14.6 ± 2.2 µM
- EC50 [3]: 22.3 ± 2.7 µM
- EC50 [4]: 21.3 ± 0.9 µM
- EC50 [5]: 12.4 ± 0.9 µM
- melting point: 167 °C

SMILES: CC(=O)C1=C(C)N2C(=C(C#N)C1c1ccccc1)N=C(N)c1c(C)nn(-c3ccccc3)c12 (stereo not shown) [Compound 7c, 8-Acetyl-4-amino-3,9-dimethyl-1,7-diphenyl-1,7-dihydropyrazolo[4,3-e]Pyrido[1,2-a]pyrimidine-6-carbonitrile]
- EC50 [1]: 19.3 ± 3.8 µM
- EC50 (HT29 cells (colon)): > 30 µM
- EC50 (MCF-7 cells (breast)): 19.5 ± 1.1 µM
- EC50 [2]: 25.4 ± 2.5 µM
- EC50 [3]: > 30 µM
- EC50 [4]: > 30 µM
- EC50 [5]: 7.7 ± 1.1 µM
- melting point: 198 °C

SMILES: COc1ccc(C2C(C#N)=C3N=C(N)c4c(C)nn(-c5ccccc5)c4N3C(C)=C2C(C)=O)cc1 (stereo not shown) [Compound 7d, 8-Acetyl-4-Amino-7-(4-methoxyphenyl)-3,9-dimethyl-1-phenyl-1,7-dihydropyrazolo[4,3-e] Pyrido[1,2-a]pyrimidine-6-carbonitrile]
- EC50 [1]: 21.5 ± 3.6 µM
- EC50 (HT29 cells (colon)): 28.3 ± 3.5 µM
- EC50 (MCF-7 cells (breast)): 18.4 ± 2.3 µM
- EC50 [2]: 21.7 ± 3.9 µM
- EC50 [3]: > 30 µM
- EC50 [4]: > 30 µM
- EC50 [5]: 16.7 ± 1.2 µM
- melting point: 160 °C

SMILES: CC(=O)C1=C(C)N2C(=C(C#N)C1c1ccc(Br)cc1)N=C(N)c1c(C)nn(-c3ccccc3)c12 (stereo not shown) [Compound 7e, 8-Acetyl-4-amino-7-(4-bromophenyl)-3,9-dimethyl-1-phenyl-1,7-dihydropyrazolo[4,3-e] Pyrido[1,2-a]pyrimidine-6-carbonitrile]
- EC50 [1]: 9.4 ± 1.2 µM
- EC50 (HT29 cells (colon)): 13.3 ± 1.8 µM
- EC50 (MCF-7 cells (breast)): 9.2 ± 0.7 µM
- EC50 [2]: 9.1 ± 1.6 µM
- EC50 [3]: 13.5 ± 1.5 µM
- EC50 [4]: 12.3 ± 0.7 µM
- EC50 [5]: 6.6 ± 0.6 µM
- EC50 [6]: 9.1 to 13.5 µM
- melting point: 192 °C

SMILES: CC(=O)C1=C(C)N2C(=C(C#N)C1c1ccc(F)cc1)N=C(N)c1c(C)nn(-c3ccccc3)c12 (stereo not shown) [Compound 7f, 8-Acetyl-4-amino-7-(4-fluorophenyl)-3,9-dimethyl-1-phenyl-1,7-sihydropyrazolo[4,3-e] Pyrido[1,2-a]pyrimidine-6-carbonitrile]
- EC50 [1]: 18.1 ± 3.3 µM
- EC50 (HT29 cells (colon)): 24.7 ± 4.4 µM
- EC50 (MCF-7 cells (breast)): 19.2 ± 1.3 µM
- EC50 [2]: 19.2 ± 3.9 µM
- EC50 [3]: > 30 µM
- EC50 [4]: 24.1 ± 2.8 µM
- EC50 [5]: 14.7 ± 1.4 µM
- melting point: 259 °C

SMILES: CC(=O)C1=C(C)N2C(=C(C#N)C1c1ccc([N+](=O)[O-])cc1)N=C(N)c1c(C)nn(-c3ccccc3)c12 (stereo not shown) [Compound 7g, 8-Acetyl-4-amino-3,9-dimethyl-7-(4-nitrophenyl)-1-phenyl-1,7-dihydropyrazolo[4,3-e] Pyrido[1,2-a]pyrimidine-6-carbonitrile]
- EC50 [1]: 16.2 ± 2 µM
- EC50 (HT29 cells (colon)): 25.9 ± 3.4 µM
- EC50 (MCF-7 cells (breast)): 15.7 ± 2.2 µM
- EC50 [2]: 14.5 ± 2.2 µM
- EC50 [3]: > 30 µM
- EC50 [4]: > 30 µM
- EC50 [5]: 17 ± 1.3 µM
- melting point: 164 °C

SMILES: COc1ccc(C2C(C#N)=C3N=C(N)c4c(C)nn(-c5ccccc5)c4N3C(C)=C2C(C)=O)cc1OC (stereo not shown) [Compound 7h, 8-Acetyl-4-amino-7-(3,4-dimethoxyphenyl)-3,9-dimethyl-1-phenyl-1,7-dihydropyrazolo[4,3-e] Pyrido[1,2-a]pyrimidine-6-carbonitrile]
- EC50 [1]: 22.1 ± 4.9 µM
- EC50 (HT29 cells (colon)): > 30 µM
- EC50 (MCF-7 cells (breast)): 25.1 ± 2.8 µM
- EC50 [2]: 27.5 ± 8.1 µM
- EC50 [3]: > 30 µM
- EC50 [4]: > 30 µM
- EC50 [5]: 24 ± 3.4 µM
- melting point: 260 °C

SMILES: CC(=O)C1=C(C)N2C(=C(C#N)C1c1ccc(Cl)c(Cl)c1)N=C(N)c1c(C)nn(-c3ccccc3)c12 (stereo not shown) [Compound 7i, 8-Acetyl-4-amino-7-(3,4-dichlorophenyl)-3,9-dimethyl-1-phenyl-1,7-dihydropyrazolo[4,3-e] Pyrido[1,2-a]pyrimidine-6-carbonitrile]
- melting point: 235 °C

SMILES: CC(=O)C1=C(C)N2C(=C(C#N)C1c1ccc([N+](=O)[O-])s1)N=C(N)c1c(C)nn(-c3ccccc3)c12 (stereo not shown) [Compound 7j, 8-Acetyl-4-amino-3,9-dimethyl-7-(5-nitro-2-thienyl)-1-phenyl-1,7-dihydropyrazolo[4,3-e] Pyrido[1,2-a]pyrimidine-6-carbonitrile]
- melting point: 262 °C

SMILES: CC(=O)C1=C(C)N2C(=C(C#N)C1c1ccc3ccccc3c1)N=C(N)c1c(C)nn(-c3ccccc3)c12 (stereo not shown) [Compound 7k, 8-Acetyl-4-amino-3,9-dimethyl-7-(2-naphthyl)-1-phenyl-1,7-dihydropyrazolo[4,3-e] Pyrido[1,2-a]pyrimidine-6-carbonitrile]
- melting point: 270 °C

SMILES: CC(=O)C1=C(C)N2C(=C(C#N)C1c1cccnc1)N=C(N)c1c(C)nn(-c3ccccc3)c12 (stereo not shown) [Compound 7l, 8-Acetyl-4-amino-3,9-dimethyl-1-phenyl-7-pyridin-3-yl-1,7-dihydropyrazolo[4,3-e] Pyrido[1,2-a]pyrimidine-6-carbonitrile]
- melting point: 306 °C

SMILES: COc1cccc2c1C(=O)c1c(O)c3c(c(O)c1C2=O)C[C@@](O)(C(=O)CO)C[C@@H]3O[C@H]1C[C@H](N)[C@H](O)[C@H](C)O1 [DX, doxorubicin, reference compound]
- EC50 (HT29 cells (colon)): 0.9 ± 0.01 µM
- EC50 (MCF-7 cells (breast)): 1.1 ± 0.3 µM
- EC50 [2]: 0.01 ± 0.01 µM
- EC50 [4]: 0.4 ± 0.07 µM
